From ChEMBL document CHEMBL5046259, “Cannabinoids Block Cellular Entry of SARS-CoV-2 and the Emerging Variants” (J Nat Prod, 2022)
In brackets after ≈: the same amount, converted by molar mass. Activity calls are given as the source filed them. The rule behind the calls is not given here.

Tests used:
Vero C1008 = test: Cytotoxicity against African green monkey Vero E6 cells by resazurin assay; format: toxicity, cell-based; conditions: chlorocebus sabaeus
HEK-293T = test: Cytotoxicity against human HEK293T cells overexpressing ACE2 by resazurin assay; format: toxicity, cell-based
Caco-2 = test: Cytotoxicity against human Caco-2 cells by resazurin assay; format: toxicity, cell-based
SARS-CoV-2 [1] = test: Antiviral activity against SARS-CoV-2 isolate USA-WA1/2020 strain infected in African green monkey Vero E6 cells assessed as inhibition of viral entry incubated for 1 hr prior to infection and measured after 48 hrs by Focus forming assay; format: functional, organism-based; conditions: Severe acute respiratory syndrome coronavirus 2, USA-WA1/2020, Vero C1008
SARS-CoV-2 [2] = test: Antiviral activity against SARS-CoV-2 infected in African green monkey Vero E6 cells assessed as inhibition of viral entry at 25 ug/ml measured after 24 hrs post infection by fluorescence microscopy; format: functional, organism-based; conditions: Severe acute respiratory syndrome coronavirus 2, dose 25.0 µg/ml

| SMILES | Activity (Vero C1008) | Activity (HEK-293T) | Activity (Caco-2) | IC50 (SARS-CoV-2 [1]) | Activity (SARS-CoV-2 [2]) |
| --- | --- | --- | --- | --- | --- |
| CCCCCc1cc(O)c(C/C=C(\C)CCC=C(C)C)c(O)c1C(=O)O [CANNABIGEROLIC ACID] | Non-Toxic | Non-Toxic | Non-Toxic | 37 µg/mL (≈ 103 µM) | Active |
| C=C(C)[C@@H]1CCC(C)=C[C@H]1c1c(O)cc(CCCCC)c(C(=O)O)c1O [CANNABIDIOLIC ACID] | Non-Toxic | Non-Toxic | Non-Toxic | 24 µg/mL (≈ 66.9 µM) | Active |
